Among the data in PubChem BioAssay (NCI) are TGI and GI50 values, retold here.

Test systems include BT-549 breast; DU-145 prostate; HS 578T breast; MDA-MB-435; NCI/ADR-RES ovarian; PC-3 prostate.
Test in all cases: NCI anticancer screen, dose series, 48 h

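A five-concentration, 48-hour dose response in 96-well plates underlies each endpoint, interpolated linearly between surrounding concentrations. GI50: concentration for 50% inhibition of growth. The concentration for full growth arrest is given as TGI.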

For the molecule `COc1cc(-c2oc3c(OC)c(O)cc(O)c3c(=O)c2OC)ccc1O`, the TGI in the test on BT-549 breast is 59.2 µM; with DU-145 prostate it was more than 81.5 µM; in the test with HS 578T breast it was 6.83 µM; in the test on MDA-MB-435 it was 52.3 µM; with NCI/ADR-RES ovarian, more than 83.5 µM; in the test on PC-3 prostate, more than 74.9 µM.

For `Nc1ccccc1C#C/C=C\C#Cc1ccccc1F`, the GI50 in the test on BT-549 breast was 4.06 µM; in the test on DU-145 prostate it was 5.49 µM; in the test with HS 578T breast, 2.09 µM; in the test with MDA-MB-435, 2.05 µM; in the test on NCI/ADR-RES ovarian, 2.47 µM; in the test with PC-3 prostate, 6.8 µM. Also, the TGI with BT-549 breast is 18.1 µM; in the test on DU-145 prostate it was 28 µM; with HS 578T breast, 5.1 µM; in the test with MDA-MB-435, 4.44 µM; in the test on NCI/ADR-RES ovarian, 6.73 µM; with PC-3 prostate it was more than 100 µM.

Take `CN(C)N=Nc1nn(C(=O)Nc2ccc(Cc3ccccc3)cc2)c2ccccc12`: the GI50 with BT-549 breast is 25.7 µM; in the test with DU-145 prostate, more than 100 µM; in the test on HS 578T breast it was more than 100 µM; in the test with NCI/ADR-RES ovarian, 0.957 µM; with PC-3 prostate, 4.65 µM. Further, the TGI in the test on BT-549 breast, in the test on DU-145 prostate, in the test on HS 578T breast, with MDA-MB-435, in the test on NCI/ADR-RES ovarian and with PC-3 prostate was more than 100 µM throughout.

Take `O=C1NC(SCc2ccc(F)cc2)=N/C1=C/c1cccc(OCc2ccc(Cl)cc2)c1`: the GI50 is 23.4 µM in the test on BT-549 breast; more than 100 µM in the test on DU-145 prostate; 9.36 µM in the test with HS 578T breast; more than 100 µM in the test on MDA-MB-435; 22.2 µM in the test on NCI/ADR-RES ovarian; more than 100 µM with PC-3 prostate. Besides, the TGI in the test with BT-549 breast, in the test with DU-145 prostate, with HS 578T breast, in the test on MDA-MB-435, in the test on NCI/ADR-RES ovarian and in the test with PC-3 prostate was more than 100 µM each time.

Regarding `COC1OC(C(C)O)C2OC(C)(C)OC12` (stereo not drawn), the TGI in the test with BT-549 breast, in the test with DU-145 prostate, with HS 578T breast, in the test with MDA-MB-435, in the test with NCI/ADR-RES ovarian and with PC-3 prostate was more than 100 µM each time.

Consider `COc1cc2c(cc1OCCCCCn1c3ccccc3c3ccccc31)N=C[C@@H]1CCCN1C2=O`, for which the GI50 in the test with BT-549 breast is 2.03 µM; with DU-145 prostate, 2.23 µM; in the test on MDA-MB-435 it was 1.69 µM; in the test on NCI/ADR-RES ovarian, 2.14 µM; in the test with PC-3 prostate, 2.36 µM. Further, the TGI with BT-549 breast is 4.31 µM; with DU-145 prostate, 4.67 µM; in the test on MDA-MB-435, 3.29 µM; with NCI/ADR-RES ovarian, 4.75 µM; with PC-3 prostate it was 7.73 µM.

Turning to `Nc1cc(-c2ccccc2)n(C(=O)Nc2ccc(Oc3ccccc3)cc2)n1`, the GI50 in the test with BT-549 breast was 86.2 µM; with DU-145 prostate, more than 100 µM; in the test with HS 578T breast, 31.9 µM; in the test on MDA-MB-435, more than 100 µM; in the test with NCI/ADR-RES ovarian, 75.4 µM; in the test with PC-3 prostate it was more than 100 µM. Also, the TGI with BT-549 breast, in the test with DU-145 prostate, in the test on HS 578T breast, in the test on MDA-MB-435, in the test with NCI/ADR-RES ovarian and in the test with PC-3 prostate was more than 100 µM in each case.

As for `COc1ccc(OC)c(/C=N/N=C2\C(=O)Nc3c(Cl)cc(Cl)cc32)c1`, the TGI in the test with BT-549 breast was 72.5 µM; with HS 578T breast it was 83.5 µM; in the test on MDA-MB-435 it was more than 100 µM; with NCI/ADR-RES ovarian, more than 100 µM; with PC-3 prostate, more than 100 µM.

As for `CC1=NN(C(=O)c2nn(-c3ccc(Cl)cc3)cc2O)C(=O)C1`, the GI50 in the test on BT-549 breast is 0.766 µM; in the test on DU-145 prostate, 8.08 µM; with HS 578T breast it was 0.34 µM; in the test with MDA-MB-435, 4.12 µM; in the test on NCI/ADR-RES ovarian, 1.83 µM; in the test with PC-3 prostate, 0.348 µM. Further, the TGI was more than 100 µM with BT-549 breast; more than 100 µM in the test with DU-145 prostate; more than 100 µM with HS 578T breast; more than 100 µM in the test on MDA-MB-435; more than 52.2 µM with NCI/ADR-RES ovarian; more than 100 µM with PC-3 prostate.

Regarding `c1ccc(/C(=N\Nc2ccc3ccccc3n2)c2ccccn2)cc1`, the GI50 was 0.116 µM in the test with BT-549 breast; 0.881 µM in the test on DU-145 prostate; 4.42 µM with HS 578T breast; 0.66 µM with MDA-MB-435; 0.387 µM in the test with NCI/ADR-RES ovarian; 1.25 µM in the test with PC-3 prostate. The TGI stood at 1.72 µM in the test with BT-549 breast; 16.8 µM with DU-145 prostate; 41.6 µM in the test with HS 578T breast; 16.7 µM in the test with MDA-MB-435; 14.2 µM with NCI/ADR-RES ovarian; 55.3 µM in the test with PC-3 prostate.

Turning to `Cc1ccc(-c2c3c(N)c4c(nc3nc3c2c(C)nn3-c2ccccc2)CCC4)cc1`, the GI50 in the test with BT-549 breast is 20.7 µM; with DU-145 prostate it was 2.21 µM; in the test with HS 578T breast, 5.03 µM; in the test on MDA-MB-435, 17.1 µM; with NCI/ADR-RES ovarian it was 8.23 µM; in the test on PC-3 prostate, 5.07 µM. In addition, the TGI turned out to be 45.5 µM in the test on BT-549 breast; 4.68 µM with DU-145 prostate; 15.6 µM in the test with HS 578T breast; 34.2 µM with MDA-MB-435; 32.3 µM with NCI/ADR-RES ovarian; 20.9 µM in the test on PC-3 prostate.

Consider `Cn1c2ccccc2c2[nH]c3ccccc3c(=O)c21`, for which the TGI in the test with BT-549 breast, with DU-145 prostate, in the test with HS 578T breast, in the test with MDA-MB-435, in the test on NCI/ADR-RES ovarian and with PC-3 prostate was more than 100 µM each time.

Regarding `Cc1ccccc1NC(=O)c1cc2ccccc2cc1O`, the GI50 in the test with BT-549 breast is 3.46 µM; with DU-145 prostate it was 4.03 µM; with HS 578T breast, 3.12 µM; in the test with MDA-MB-435, 3.04 µM; in the test with NCI/ADR-RES ovarian it was 2.85 µM; with PC-3 prostate, 2.7 µM. For the same molecule, the TGI in the test with BT-549 breast was 8.43 µM; in the test with DU-145 prostate, more than 100 µM; in the test with HS 578T breast, 8.38 µM; with MDA-MB-435, more than 100 µM; in the test on NCI/ADR-RES ovarian it was 8.79 µM; in the test with PC-3 prostate, 8.81 µM.
